Common to all, as to type: in vivo
One assay relates to tobacco whitefly. Put plainly: Test Example 3: spray test on tobacco whitefly larvae on cabbage. Conditions: 168 h, sprayed on cabbage at 20 ml/cup, hatched larvae, seven days after spraying, read-out: Controlling value (%).
For the next assay, the system named is Tetranychus urticae. Put plainly: Test Example 4: spray test on Tetranychus urticae on vineless common bean. Conditions: 192 h, read-out: Controlling rate (%). As to the method: Each of present compounds (1) to (3), (5), (17), (39), (55) to (57), (120) to (124), (129), (130), (135), (136), (139) to (141), (232), (236), (243), (255), (262), and the comparative compound (A) was formulated into a preparation according to Preparation Example 5. This preparation was diluted with water so that the concentration of the present compound or the comparative compound (A) became 500 ppm.
Meanwhile, about 60 Tetranychus urticae female imagoes were released on a vineless common bean plantlet (7 days after seeding, first leaf development phase) planted in a plastic cup, which was allowed to stand for 1 day. To this plantlet was sprayed 20 ml of each of the above diluted solutions.
Eight days after spraying, the number of surviving mites on a leaf of the vineless common bean was investigated, and a controlling rate was calculated according to the following equation.
Controlling rate (%)=100×{1−(number of surviving mites of treated group)/(number of surviving mites of non-treated group)}

Assay [1] deals with cotton aphids. Put plainly: Test Example 2: soil immersion treatment of cucumber, cotton aphids inoculated afterwards. Conditions: 144 h, 500 ppm test solution (5 ml + 40 ml water), aphids inoculated after 7 days, counted 6 days later, 25° C., read-out: Controlling value (%). As to the method:
Into a beer cup were poured 5 ml of the test diluted solution and 40 ml of water, where a cucumber planted in a polyethylene cup and grown to develop a first true leaf was accommodated, and the soil part was subjected to immersion-treatment. The plant was retained in a greenhouse at 25° C. for 7 days, 30 cotton aphids (all stages) were inoculated on a cucumber leaf surface, the plant was further retained in a greenhouse at 25° C. for 6 days, the number of surviving worms of cotton aphids parasitized on the leaf surface was investigated, and a controlling value was calculated according to the following equation.
(§1) Controlling value (%)={1−(Cb×Tai)/(Cai×Tb)}×100
(§2) Cb is the number of worms before treatment of a non-treated group.
(§3) Cai is the number of worms at observation of a non-treated group.
(§4) Tb is the number of worms before treatment of a treated group.
(§5) Tai is the number of worms at observation of a treated group.

Assay [2] deals with cotton aphids. As to the kind of experiment: Test Example 1: spray test on cotton aphids parasitized on cucumber. Conditions: 144 h; 500 ppm active ingredient, sprayed on cucumber at 20 ml/cup, six days after spraying; read-out: Controlling value (%). How it is done: On the other hand, a cucumber was planted in a polyethylene cup, and grown until a first true leaf was developed, and 30 cotton aphids were parasitized thereon. One day after, the test spray solution was sprayed to the cucumber at a ratio of 20 ml/cup. Six days after spraying, the number of cotton aphids was investigated, and a controlling value was calculated according to the following equation.
as §1, §2, §3, §4, §5

Where [3] appears, read: 500 ppm, 20 ml sprayed on common bean plantlet, female imagoes, eight days after spraying.

SMILES strings stand for the structures. Read-outs that look alike come from different tables or passages of the source.

Regarding `CC#CCOc1nc(SC(=O)N(C)C)ns1` [(8)], the pest or weed control at 500 ppm with tobacco whitefly was at least 90%.

As for `CN(C)C(=O)Sc1nsc(OCC(C)(C)CCl)n1` [(52)], the pest or weed control at 500 ppm with tobacco whitefly is at least 90%.

Turning to `CN(C)C(=O)Sc1nsc(OCc2ccc(C(F)(F)F)cc2C(F)(F)F)n1` [(112)], the pest or weed control at 500 ppm in the assay with tobacco whitefly was at least 90%.

As for `O=C(Sc1nsc(OC2COCOC2)n1)N1CCOCC1` [(130)], the pest or weed control at 500 ppm with Tetranychus urticae (setting [3]) and in the assay on cotton aphids [1] was at least 90% throughout.

As for `COCC(COc1nc(SC(=O)N(C)C)ns1)OC` (stereo not shown) [(277)], the pest or weed control at 500 ppm with cotton aphids [1] is at least 90%.

For `C[C@H](Oc1nc(SC(=O)N2CCCC2)ns1)[C@H]1COC(C)(C)O1` [(262)], in the assay with Tetranychus urticae (setting [3]), the pest or weed control at 500 ppm was at least 90%.

Turning to `O=C(Sc1nsc(Cl)n1)N1CCCC1` [(147)], in the assay on cotton aphids [1], the pest or weed control at 500 ppm is at least 90%.

`C#CC(C)Oc1nc(SC(=O)N(C)C)ns1` (stereo not shown) [(39)]: the pest or weed control at 500 ppm in the assay on tobacco whitefly and in the assay with Tetranychus urticae (setting [3]) was at least 90% each time.

`O=C(Sc1nsc(OCC2COCO2)n1)N1CCOCC1` (stereo not shown) [(129)]: the pest or weed control at 500 ppm in the assay on Tetranychus urticae (setting [3]) and in the assay with cotton aphids [1] was at least 90% throughout.

For `C#CCOc1nc(SC(=O)N(C)C)ns1` [(7)], the pest or weed control at 500 ppm in the assay with tobacco whitefly is at least 90%.

For `CCOc1nc(SC(=O)N2CCOCC2)ns1` [(122)], the pest or weed control at 500 ppm with tobacco whitefly was at least 90%.

Take `COCCOc1nc(SC(=O)N2CCCC2)ns1` [(243)]: the pest or weed control at 500 ppm in the assay on Tetranychus urticae (setting [3]) was at least 90%.

In the case of `CN(C)C(=O)Sc1nsc(OCc2ccccc2)n1` [(211)], the pest or weed control at 500 ppm with tobacco whitefly and with cotton aphids [2] was at least 90% throughout.

Take `CN(C)C(=O)Sc1nsc(OCc2cccc(F)c2)n1` [(79)]: in the assay with cotton aphids [1], the pest or weed control at 500 ppm was at least 90%.

With `CN(C)C(=O)Sc1nsc(OCC(C)(C)C)n1` [(31)], the pest or weed control at 500 ppm in the assay on tobacco whitefly was at least 90%.

`C=CCOc1nc(SC(=O)N(C)C)ns1` [(255)]: in the assay on Tetranychus urticae (setting [3]), the pest or weed control at 500 ppm was at least 90%.

Regarding `CN(C)C(=O)Sc1nsc(OCCOCC(F)(F)F)n1` [(232)], the pest or weed control at 500 ppm in the assay with Tetranychus urticae (setting [3]) is at least 90%.

As to `CN(C)C(=O)Sc1nsc(OCc2ccc(Cl)c(Cl)c2)n1` [(103)], the pest or weed control at 500 ppm in the assay on cotton aphids [2] was at least 90%.

Consider `CC(Oc1nc(SC(=O)N(C)C)ns1)C(F)(F)C(F)(F)F` (stereo not shown) [(61)], for which the pest or weed control at 500 ppm in the assay on tobacco whitefly, with cotton aphids [2] and with cotton aphids [1] was at least 90% each time.

Turning to `C#CCC(C)Oc1nc(SC(=O)N(C)C)ns1` (stereo not shown) [(38)], the pest or weed control at 500 ppm with tobacco whitefly was at least 90%.

Take `CCCCOc1nc(SC(=O)N(C)C)ns1` [(5)]: the pest or weed control at 500 ppm in the assay on tobacco whitefly and with Tetranychus urticae (setting [3]) was at least 90% throughout.

For `CN(C)C(=O)Sc1nsc(OCc2c(Cl)cccc2Cl)n1` [(102)], the pest or weed control at 500 ppm in the assay on cotton aphids [2] was at least 90%.

Consider `C=CCCCOc1nc(SC(=O)N(C)C)ns1` [(34)], for which the pest or weed control at 500 ppm with tobacco whitefly, in the assay on cotton aphids [2] and in the assay on cotton aphids [1] was at least 90% each time.

`CCCOc1nc(OC(=O)N(C)C)ns1` [comparative compound (A), reference compound]: the pest or weed control at 500 ppm with tobacco whitefly and in the assay on Tetranychus urticae was 0% throughout.

On to `CN(C)C(=O)Sc1nsc(OCC(F)(F)C(F)(F)F)n1` [(59)], for which the pest or weed control at 500 ppm in the assay with tobacco whitefly, in the assay with cotton aphids [2] and in the assay on cotton aphids [1] was at least 90% throughout.

Regarding `CN(C)C(=O)Sc1nsc(OCCCl)n1` [(67)], in the assay with tobacco whitefly, the pest or weed control at 500 ppm was at least 90%.

As to `CC#CCOc1nc(SC(=O)N2CCOCC2)ns1` [(125)], in the assay on cotton aphids [1], the pest or weed control at 500 ppm is at least 90%.

`CN(C)C(=O)Sc1nsc(OCc2ccsc2)n1` [(74)]: in the assay on cotton aphids [2], the pest or weed control at 500 ppm was at least 90%.

As for `CN(C)C(=O)Sc1nsc(OCCCCOc2nc(SC(=O)N(C)C)ns2)n1` [(206)], the pest or weed control at 500 ppm with tobacco whitefly is at least 90%.

Turning to `CN(C)C(=O)Sc1nsc(OCCCCl)n1` [(49)], the pest or weed control at 500 ppm in the assay on tobacco whitefly and in the assay with cotton aphids [1] was at least 90% each time.

In the case of `CN(C)C(=O)Sc1nsc(OCc2ccc(F)c(C(F)(F)F)c2)n1` [(111)], the pest or weed control at 500 ppm with tobacco whitefly is at least 90%.

Turning to `CN(C)C(=O)Sc1nsc(OCC(F)(F)C(F)(F)C(F)(F)F)n1` [(62)], the pest or weed control at 500 ppm with cotton aphids [2] and in the assay on cotton aphids [1] was at least 90% throughout.

Consider `O=C(Sc1nsc(OCC2CCOC2)n1)N1CCOCC1` (stereo not shown) [(127)], for which the pest or weed control at 500 ppm with cotton aphids [1] is at least 90%.

As to `CN(C)C(=O)Sc1nsc(OC2CCOCC2)n1` [(17)], the pest or weed control at 500 ppm in the assay on tobacco whitefly, in the assay on Tetranychus urticae (setting [3]) and in the assay with cotton aphids [1] was at least 90% each time.

Consider `COc1nc(SC(=O)N2CCCC2)ns1` [(135)], for which, in the assay on Tetranychus urticae (setting [3]), the pest or weed control at 500 ppm is at least 90%.

With `CCOC(CCOc1nc(SC(=O)N(C)C)ns1)OCC` [(201)], the pest or weed control at 500 ppm with tobacco whitefly, in the assay on cotton aphids [2] and with cotton aphids [1] was at least 90% throughout.

In the case of `CN(C)C(=O)Sc1nsc(OCCC(C)(C)C)n1` [(33)], in the assay on cotton aphids [2], the pest or weed control at 500 ppm was at least 90%.

Turning to `CN(C)C(=O)Sc1nsc(OCc2cccc(Cl)c2Cl)n1` [(99)], the pest or weed control at 500 ppm in the assay on cotton aphids [2] was at least 90%.

With `Cc1nn(C)c(Oc2nc(SC(=O)N(C)C)ns2)c1C` [(218)], the pest or weed control at 500 ppm with cotton aphids [1] is at least 90%.

`CN(C)C(=O)Sc1nsc(OCc2ccccn2)n1` [(215)]: in the assay with tobacco whitefly, the pest or weed control at 500 ppm was at least 90%.

Consider `CCC(Oc1nc(SC(=O)N(C)C)ns1)C(C)(C)C` (stereo not shown) [(64)], for which the pest or weed control at 500 ppm in the assay on cotton aphids [2] was at least 90%.

Regarding `CC1(C)OCC(COc2nc(SC(=O)N3CCOCC3)ns2)O1` (stereo not shown) [(119)], the pest or weed control at 500 ppm in the assay with tobacco whitefly is at least 90%.

For `CN(C)C(=O)Sc1nsc(OCCCCCl)n1` [(50)], in the assay with cotton aphids [1], the pest or weed control at 500 ppm is at least 90%.

Take `CCOc1nc(SC(=O)N2CCCC2)ns1` [(136)]: the pest or weed control at 500 ppm in the assay on Tetranychus urticae (setting [3]) was at least 90%.

Consider `CN(C)C(=O)Sc1nsc(OCCOc2nc(SC(=O)N(C)C)ns2)n1` [(225)], for which, in the assay with cotton aphids [2], the pest or weed control at 500 ppm was at least 90%.

For the compound `COCC(C)Oc1nc(SC(=O)N(C)C)ns1` (stereo not shown) [(236)], the pest or weed control at 500 ppm in the assay on Tetranychus urticae (setting [3]) was at least 90%.

Turning to `CN(C)C(=O)Sc1nsc(OCCCn2cccn2)n1` [(19)], the pest or weed control at 500 ppm with cotton aphids [1] is at least 90%.

Turning to `CN(C)C(=O)Sc1nsc(OCCCOc2nc(SC(=O)N(C)C)ns2)n1` [(204)], the pest or weed control at 500 ppm in the assay with cotton aphids [2] was at least 90%.

As to `CCCOc1nc(SC(=O)N2CCOCC2)ns1` [(120)], the pest or weed control at 500 ppm in the assay with tobacco whitefly was at least 90%.

Values taken from patent US20100081693A1, “T[…] AND USE THEREOF” (priority 2006, published 2010).
